In BindingDB's records for PubMed 33309162 (Universita Degli Studi di Palermo, 2021):

Target: PI3K catalytic subunit alpha (PIK3CA), rat
Test: Inhibition of PI3Kalpha in rat Rat1 cells reduction in phosphorylation of AKT at Ser473 residue incubated for 2 hrs by alpha screen assay

IC50 [µM] | SMILES
> 10 | Cn1nccc1-n1c([C@@H]2CSCN2c2ncnc(N)c2C#N)nc2cccc(Cl)c2c1=O
> 10 | CN1CCN(C)/C(=N/c2ccc([N+](=O)[O-])cc2C(=O)Nc2ccccc2)C1
> 10 | N#Cc1c(N)ncnc1N1CSC[C@H]1c1nc2cccc(Cl)c2c(=O)n1-c1cccs1
